Data on seven compounds can be found in US7750135B2, “Molecular design of thermostable alcohol dehydrogenase for synthesis for chiral aromatic alcohols” (Board of Trustees of Michigan State University, priority 2007, dated 2010).

One experiment has as its target T1, Y267G TeSADH (Thermoanaerobacter brockii, UniProt P14941, A186D/Y267G).
T1 construct: His6 (C); made in house; host or cells: E. coli, pET24a(+); heat-treated crude extract
Type of experiment: biochemical, Thermoanaerobacter ethanolicus. The note with it: heat-treated crude extracts. The procedure: (§1) J. 302:163-170), with (rac)-2-butanol, (rac)-1-phenethyl alcohol, (rac)-1-phenyl-2-propanol, (rac)-4-phenyl-2-butanol, and phenylacetone as substrates. Assays were done in the presence of 50 mM Tris-HCl [pH 8.0] and 0.4 mM NADP^+ (alcohol oxidation), or pH 6.5 and 0.4 mM NADPH (ketone reduction). Initial velocity was measured spectrophotometrically at 60° C. by following NADPH production (alcohol oxidation) or consumption (ketone reduction) at 340 nm for 1 min in a Varian Cary 300 UV/Vis spectrophotometer equipped with a Peltier heating system. The enzyme was preincubated for at least 5 min at 40° C. before being added to the assays. […] One unit of activity was defined as the amount of enzyme needed to consume or produce 1 μmol of NADPH per minute.

The next experiment addresses T2, wild-type (WT) TeSADH (Thermoanaerobacter brockii, UniProt P14941, A186D).
T2 construct: made in house; the wild-type adhB gene sat in plasmid pADHBIM1-kan
It counts as biochemical, Thermoanaerobacter ethanolicus. The note with it: 60° C., 1 min, 50 mM Tris-HCl pH~6.5 (ketones) or pH~8.0 (alcohols), 0.4 mM NADP(H). The procedure: as §1

The target of experiment [1] is T3, Wild-type TeSADH (Thermoanaerobacter brockii, UniProt P14941, A186D). It counts as biochemical, Thermoanaerobacter ethanolicus. More on the design: made in house; the wild-type adhB gene sat in plasmid pADHBIM1-kan. The note with it: heat-treated crude extracts. The procedure:
as §1

The target of experiment [2] is T3, Wild-type TeSADH. The note with it: 60° C., 1 min, 50 mM Tris-HCl pH ~8.0 (alcohols) or ~6.5 (ketones), 0.4 mM NADP(H).
Protocol: At least eight substrate concentrations were used for each data set and each set was performed in triplicate.
The mark [3] stands for this setting: enzyme concentration estimated by SDS-PAGE.

Read-outs that look alike come from different tables or passages of the source.

T1 sequence (P14941 whole entry A186D/Y267G): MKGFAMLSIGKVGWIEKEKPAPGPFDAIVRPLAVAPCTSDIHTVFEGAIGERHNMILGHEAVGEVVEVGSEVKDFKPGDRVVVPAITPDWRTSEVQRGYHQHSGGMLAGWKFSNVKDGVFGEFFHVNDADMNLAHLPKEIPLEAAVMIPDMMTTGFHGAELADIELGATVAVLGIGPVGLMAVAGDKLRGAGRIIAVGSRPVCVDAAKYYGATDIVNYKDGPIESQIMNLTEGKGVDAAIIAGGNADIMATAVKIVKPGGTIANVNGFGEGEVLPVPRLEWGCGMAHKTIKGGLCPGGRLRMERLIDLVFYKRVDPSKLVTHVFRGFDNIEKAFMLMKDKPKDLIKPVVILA
T3 sequence (P14941 whole entry A186D): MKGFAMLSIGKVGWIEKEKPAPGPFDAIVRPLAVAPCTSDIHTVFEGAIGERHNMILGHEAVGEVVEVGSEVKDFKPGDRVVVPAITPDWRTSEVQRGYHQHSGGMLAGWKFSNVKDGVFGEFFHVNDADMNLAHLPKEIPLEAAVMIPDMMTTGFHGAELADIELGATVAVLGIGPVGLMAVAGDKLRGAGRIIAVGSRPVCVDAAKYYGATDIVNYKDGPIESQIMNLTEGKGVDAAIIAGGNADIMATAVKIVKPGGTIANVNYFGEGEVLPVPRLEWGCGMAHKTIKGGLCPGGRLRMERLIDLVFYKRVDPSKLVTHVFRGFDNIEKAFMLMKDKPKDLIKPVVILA
T2 sequence (P14941 whole entry A186D): as above

For `CC(O)c1ccccc1` (racemic) [(rac)-1-Phenethyl alcohol], at Y267G TeSADH, the “Activity of Y267G TeSADH” value is “no detectable activity”. Further, the “Specific activity, WT” value at wild-type (WT) TeSADH (substrate 10 mM) is reported as 0.15 U(umol)/mg protein.
On to `CC(O)Cc1ccccc1` (racemic) [(rac)-1-phenyl-2-propanol], for which the “Activity of Y267G TeSADH” value on Y267G TeSADH is listed as “no detectable activity”. In addition, the “Specific activity, WT” value at wild-type (WT) TeSADH (substrate 10 mM) is 0.14 U(umol)/mg protein.
For the compound `CC(O)CCc1ccccc1` (racemic) [(rac)-4-Phenyl-2-butanol], the “Activity of Y267G TeSADH” value on Y267G TeSADH is “no detectable activity”. Further, the “Specific activity, WT” value on wild-type (WT) TeSADH (substrate 7.5 mM) was 0.29 U(umol)/mg protein.
For the compound `CC(=O)CCc1ccccc1` [1a, 4-Phenyl-2-butanone], the “Specific activity, WT” value at wild-type (WT) TeSADH (substrate 7.5 mM) is 5.94 U(umol)/mg protein. Besides, the “Activity of wild-type TeSADH” value on Wild-type TeSADH [1] is “only slight activity”.
For the compound `CCC(C)O` (stereo not drawn) [2-Butanol], on Y267G TeSADH (setting [3]), the “Specific activity of Y267G TeSADH” value is on record as about 33 U/mg. Besides, the “Specific activity, WT” value at wild-type (WT) TeSADH (substrate 7.5 mM) was 45.27 U(umol)/mg protein. Further, on Wild-type TeSADH [2], the “Vmax (app), Wild-type TeSADH” value was 37 U/mg. Also, the Km on Wild-type TeSADH [2] (read-out: Km (app), Wild-type TeSADH) worked out at 510 µM. On Wild-type TeSADH [1] (setting [3]), the “Specific activity of wild-type TeSADH” value is on record as about 41 U/mg.
On to `CC(=O)Cc1ccccc1` [7a, 1-phenyl-2-propanone], for which the “Specific activity, WT” value on wild-type (WT) TeSADH (substrate 7.5 mM) is 1.02 U(umol)/mg protein.
Still for that read-out and setting: then `CC(=O)c1ccccc1` [Acetophenone], with 0.90 U(umol)/mg protein.

For orientation: Km means the substrate concentration at which the rate is half of its maximum.
